Assay results: the supplement of paper PMC10307832

What was measured:
Test in all cases: relative viability (nuclei count vs DMSO), 5 days (fraction); higher = more cells survive
[1] = compound: CCn1c(-c2nonc2N)nc2cnc(Oc3cccc(NC(=O)c4ccc(OCCN5CCOCC5)cc4)c3)cc21 + COc1cccc2cc(-c3nc([C@H]4CC[C@H](C(=O)O)CC4)n4ncnc(N)c34)[nH]c12 [OSI-027] (partner 0.5 µM)
Outline: (§1)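 One day after seeding in 1536-well plates, lung cancer cell lines were dosed by pin tool. Dosing was either single-drug or a fixed anchor-drug dose plus five library-drug doses (not always all listed) in √10 steps. After 5 days, nuclei were stained in one fix-and-stain step and counted on 4× images, and relative viability is the nuclei count of treated wells over that of vehicle wells, given as the median of duplicate plates.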

[2] = compound: CCn1c(-c2nonc2N)nc2cnc(Oc3cccc(NC(=O)c4ccc(OCCN5CCOCC5)cc4)c3)cc21 + O=C(c1cc(Cc2n[nH]c(=O)c3ccccc23)ccc1F)N1CCN(C(=O)C2CC2)CC1 [Olaparib] (partner 8 µM)
Outline: as §1

Mirin + Pictilisib = compound: N=C1NC(=O)/C(=C/c2ccc(O)cc2)S1 [Mirin] + CS(=O)(=O)N1CCN(Cc2cc3nc(-c4cccc5[nH]ncc45)nc(N4CCOCC4)c3s2)CC1 [Pictilisib] (partner 1 µM)
Outline: as §1

Mirin + Olaparib = compound: N=C1NC(=O)/C(=C/c2ccc(O)cc2)S1 [Mirin] + O=C(c1cc(Cc2n[nH]c(=O)c3ccccc23)ccc1F)N1CCN(C(=O)C2CC2)CC1 [Olaparib] (partner 8 µM)
Outline: as §1

Cell Line	relative viability ([1]; first compound 0.04 µM)	relative viability ([1]; first compound 0.1265 µM)	relative viability ([1]; first compound 0.4 µM)	relative viability ([1]; first compound 1.265 µM)	relative viability ([1]; first compound 4 µM)	relative viability ([2]; first compound 0.04 µM)	relative viability ([2]; first compound 0.1265 µM)	relative viability ([2]; first compound 0.4 µM)	relative viability ([2]; first compound 1.265 µM)	relative viability ([2]; first compound 4 µM)	relative viability (Mirin + Pictilisib; first compound 0.25 µM)	relative viability (Mirin + Pictilisib; first compound 0.7906 µM)	relative viability (Mirin + Pictilisib; first compound 2.5 µM)	relative viability (Mirin + Pictilisib; first compound 7.906 µM)	relative viability (Mirin + Pictilisib; first compound 25 µM)	relative viability (Mirin + Olaparib; first compound 0.25 µM)	relative viability (Mirin + Olaparib; first compound 0.7906 µM)	relative viability (Mirin + Olaparib; first compound 2.5 µM)	relative viability (Mirin + Olaparib; first compound 7.906 µM)	relative viability (Mirin + Olaparib; first compound 25 µM)
NCI-H2170	0.708	0.703	0.641	0.555	0.555	0.629	0.661	0.629	0.549	0.415	0.327	0.217	0.281	0.247	0.253	0.582	0.548	0.576	0.597	0.601
NCI-H522	0.742	0.818	0.642	0.55	0.587	0.661	0.614	0.665	0.514	0.554						0.583	0.665	0.624	0.719	0.508
LCLC-97TM1	0.516	0.655	0.254	0.691	0.528	0.518	0.381		0.387	0.423	0.184	0.128	0.193	0.136	0.149	0.386	0.413	0.486	0.244	0.166
NCI-H1299						0.975	0.958	0.867	0.712	0.52	0.811	0.823	0.787	0.688	0.602	1.03	1.01	0.958	0.867	1.03
NCI-H322M	0.826	0.667	0.416	0.562	0.611	1.14	1.01	0.935	0.661	0.702	0.5	0.419	0.492	0.567	0.583	0.81	0.816	0.726	0.712	0.583
NCI-H1395	0.785	0.512	0.525	0.351	0.384	0.384	0.41	0.401	0.374	0.352	0.578		0.617	0.549	0.512	0.427		0.478	0.426	0.425
NCI-H2009	0.753	0.597	0.39	0.361	0.322	0.605	0.566	0.549	0.486	0.334	0.919	0.706	0.871	0.66	0.6	0.727	0.737	0.684	0.524	0.675
NCI-H1651	0.745	0.684	0.596	0.57	0.404	0.18	0.182	0.195	0.17	0.169	0.62	0.597	0.573	0.488	0.554	0.182	0.208	0.182	0.167	0.199
